Twelve compounds from EP1295874A2, “Retroviral protease inhibiting compounds” (Abbott Laboratories, priority 1995, dated 1997) can be followed below.

One series has as its system HIVIIIB. Briefly: Antiviral activity (anti-HIV activity) in MT4 cells, MTT readout. Type of series: cell-based. Conditions: Human immunodeficiency virus 1, MT4, 120 h, read-out: IC50 (µM, 0% plasma). The source says: (§1) The anti-HIV activity of the compound of the invention can be determined in MT4 cells according to the following procedure. MT4 cells were infected with cell-free supernatant of HIVIIIB (previously frozen with known 50% tissue culture infectious dose (TCID50) at 0.003 multiplicity of infection (MOI) for one hour. After one hour infection, cells were washed twice to remove residual viruses, resuspended in culture media and seeded into 96-well tissue culture plates at 1x10^4 cells per well with various half-log dilutions of compounds. Uninfected cells are included as toxicity and cell controls. RPMI 1640 media (Gibco ) with 10% fetal bovine serum were used as culture media. Various concentrations of human serum (Sigma) 50%, 25% and 12.5% were added to culture media resulting in final concentration of 60%, 35% and 22.5% total serum. All assay plates were incubated in 37 deg. cent. incubator for 5 days. MTT (sigma, 5 mg/ml stock in PBS) was added to all wells at 25 ul per well, incubate for 4 hours. 20%SDS with 0.02 N HCl in water was added at 50 ul per well to lyse cellls. Plates incubated overnight for complete lyses were read on a microtitre plate reader at 570/650 nm wavelengths to determine cell optical density (O.D.). Raw data were analysed for percent inhibition by the following formula: (O.D. test well - O.D. virus control)/(O.D. cell control -O.D. virus control)x100 [formula] The 50% effective concentration (EC50) was calculated by the median effect equation (Chou, 1975,Proc. Int. Cong. Pharmacol. 6th p. 619) to determine the efficacy of compound. The 50% lethal concentration (LC50) was calculated using uninfected MT4 cells.
(§2) Under these conditions, the following data were obtained (n = 4 duplicate determinations: Table 2

Series [1] in a line: 50% lethal concentration in uninfected MT4 cells (MTT). Type of series: cell-based. Conditions: human, read-out: LC50.
From the text: as §1, §2

Another series deals with T1, HIV protease (Human immunodeficiency virus type 1 group M subtype B, UniProt P04585).
T1 construct: HIV protease consists of two identical subunits, each of which has 99 amino acid residues
Briefly: Fluorogenic Assay for Screening Inhibitors of HIV Protease. The following applies: Inhibitor Concentration 0.5 nanomolar; read-out: Percent Inhibition. Format: biochemical. The method, then: The inhibitory potency of the compound of the invention can be determined by the following method.
The compound of the invention is dissolved in DMSO and a small aliquot further diluted with DMSO to 100 times the final concentration desired for testing. The reaction is carried out in a 6 X 50 mm tube in a total volume of 300 microliters. The final concentrations of the components in the reaction buffer are: 125 mM sodium acetate, 1 M sodium chloride, 5 mM dithiothreitol, 0.5 mg/ml bovine serum albumin, 1.3 µM fluorogenic substrate, 2% (v/v) dimethylsulfoxide, pH 4.5. After addition of inhibitor, the reaction mixture is placed in the fluorometer cell holder and incubated at 30°C for several minutes. The reaction is initiated by the addition of a small aliquot of cold HIV protease. The fluorescence intensity (excitation 340 nm, emmision 490 nM) is recorded as a function of time. The reaction rate is determined for the first six to eight minutes. The observed rate is directly proportional to the moles of substrate cleaved per unit time. The percent inhibition is 100 X (1 - (rate in presence of inhibitor)/(rate in absence of inhibitor)).
Fluorogenic substrate: Dabcyl-Gaba-Ser-Gln-Asn-Tyr-Pro-lle-Val-Gln-EDANS wherein DABCYL = 4-(4-dimethylamino-phenyl)azobenzoic acid, Gaba = γ-aminobutyric acid, and EDANS = 5-((2-aminoethyl)amino)-naphthalene-1-sulfonic acid.

Series [2] relates to HIV Selected In Vitro by the Compound of Example 2B. Briefly: microbe, parasite or virus in culture. Format: cell-based.
Where [3] appears, read: Human immunodeficiency virus 1, NL43, Virus NL4-3.
Where [4] appears, read: Human immunodeficiency virus 1, Virus P7.
The mark [5] stands for this setting: Human immunodeficiency virus 1, Virus P11.
Where [6] appears, read: Human immunodeficiency virus 1, Virus P14.
Setting [7] is: Human immunodeficiency virus 1, Virus P17.

SMILES strings stand for the structures. A value given as a limit tells only on which side of the number the result lay.

For `Cc1ccnc(C)c1OCC(=O)N[C@@H](Cc1ccccc1)[C@@H](O)C[C@H](Cc1ccccc1)NC(=O)[C@H](C(C)C)N1CCNC1=O` [Example 15, (2S,3S,5S)-2-(2,4-Dimethyl-pyridin-3-oxy-acetyl) amino-3-hydroxy-5-(2S-(1-imidazolidin-2-onyl)-3-methyl-butanoyl) amino-1,6-diphenylhexane], the IC50 in the series on HIVIIIB came out at 0.119 µM. Besides, the CC50 at 120 h in series [1] was more than 100000 nM. The inhibition at 0.0005 µM on HIV protease came to 48%.
For `Cc1cccc(C)c1OCC(=O)N[C@@H](Cc1ccccc1)[C@@H](O)C[C@H](Cc1ccccc1)NC(=O)[C@H](C(C)C)N1CCCC1=O` [Example 17C, (2S,3S,5S)-2-(2,6-Dimethylphenoxyacetyl) amino-3-hydroxy-5-(2S-(1-pyrrolidin-2-onyl)-3-methyl-butanoyl) amino-1,6-diphenylhexane], the IC50 in the series with HIVIIIB came to 0.051 µM. In addition, the CC50 at 120 h in series [1] worked out at 19000 nM. For the same compound, on HIV protease, the inhibition at 0.0005 µM came to 87.2%.
The matching figures for `Cc1cccc(C)c1OCC(=O)N[C@@H](Cc1ccccc1)[C@@H](O)C[C@H](Cc1ccccc1)NC(=O)[C@H](C(C)C)N1C(=O)CCC1=O` [Example 18C, (2S,3S,5S)-2-(2,6-Dimethylphenoxyacetyl) amino-3-hydroxy-5-(2S-(1-pyrrolidin-2,5-dionyl)-3-methyl-butanoyl) amino-1,6-diphenylhexane]: 0.329 µM, 19100 nM and 57.8%.
On the same counts, the results for `Cc1cccc(C)c1/C=C/C(=O)N[C@@H](Cc1ccccc1)[C@@H](O)C[C@H](Cc1ccccc1)NC(=O)[C@H](C(C)C)N1CCCNC1=O` [Example 19E] are 0.395 µM, 18000 nM and 68.5%.
The matching figures for `Cc1cccc(C)c1OCC(=O)N[C@@H](Cc1ccccc1)[C@@H](O)C[C@H](Cc1ccccc1)NC(=O)[C@H](C(C)C)N1CCC(=O)NC1=O` [Example 25E, (2S,3S,5S)-2-(2,6-Dimethylphenoxyacetyl) amino-3-hydroxy-5-[2S-(1-tetrahydro-pyrimid-2,4-dionyl)-3-methylbutanoyl]amino-1,6-diphenylhexane]: 0.012 µM, 22900 nM and 100%.
Turning to `Cc1cccc(C)c1OCC(=O)N[C@@H](Cc1ccccc1)[C@@H](O)C[C@H](Cc1ccccc1)NC(=O)[C@H](C(C)C)N1CCNNC1=O` [Example 26H, (2S,3S,5S)-2-(2,6-Dimethylphenoxyacetyl) amino-3-hydroxy-5[2S-(4-aza-1-tetrahydro-pyrimid-2-onyl)-3-methyl-butanoyl]amino-1,6-diphenylhexane], in the series with HIVIIIB, the concentration for half-maximal inhibition (IC50) is 0.015 µM. Further, the CC50 at 120 h in series [1] was determined as 33000 nM. Besides, at HIV protease, the inhibition at 0.0005 µM amounted to 94.6%.
The matching figures for `Cc1cccc(C)c1OCC(=O)N[C@@H](Cc1ccccc1)[C@@H](O)C[C@H](NC(=O)[C@H](C(C)C)N1CCCNC1=O)C(C)C` [Example 27D, (2S,3S,5S)-2-(2,6-Dimethylphenoxyacetyl) amino-3-hydroxy-5-[2S-(1-tetrahydro-pyrimid-2-onyl)-3-methylbutanoyl]amino-1-phenyl-6-methylheptane]: 0.03 µM, 56200 nM and 92.9%.
On the same counts, the results for `Cc1cccc(C)c1OCC(=O)N[C@@H](Cc1ccccc1)[C@@H](O)C[C@H](NC(=O)[C@H](C(C)C)N1CCC(=O)NC1=O)C(C)C` [Example 28, (2S,3S,5S)-2-(2,6-Dimethylphenoxyacetyl) amino-3-hydroxy-5-[2S-(1-tetrahydro-pyrimid-2,4-dionyl)-3-methylbutanoyl]amino-1-phenyl-6-methylheptane] are 0.011 µM, 72200 nM and 86.6%.
As to `Cc1cccc(C)c1OCC(=O)N[C@@H](Cc1ccccc1)[C@@H](O)C[C@H](Cc1ccccc1)NC(=O)[C@H](C(C)C)N1CCNC(=O)C1=O` [Example 29C, (2S,3S,5S)-2-(2,6-Dimethylphenoxyacetyl)amino-3-hydroxy-5-[2S-(1-piperazin-2,3-dionyl)-3-methylbutanoyl]amino-1,6-diphenylhexane], in the series with HIVIIIB, the IC50 worked out at 0.427 µM. For the same compound, the CC50 at 120 h in series [1] worked out at 56000 nM. Moreover, the inhibition at 0.0005 µM on HIV protease was found to be 72.6%.
The matching figures for `Cc1cccc(C)c1OCC(=O)N[C@@H](Cc1ccccc1)[C@@H](O)C[C@H](Cc1ccccc1)NC(=O)[C@H](C(C)C)N1CC=NNC1=O` [Example 30B, (2S,3S,5S)-2-(2,6-Dimethylphenoxyacetyl) amino-3-hydroxy-5[2S-(4-aza-4,5-dehydro-1-pyrimid-2-onyl)-3-methyl-butanoyl]amino-1,6-diphenylhexane]: 0.003 µM, 18000 nM and 91%.
Consider `CC(C)(C)NC(=O)[C@@H]1CN(Cc2cccnc2)CCN1C[C@@H](O)C[C@@H](Cc1ccccc1)C(=O)N[C@H]1c2ccccc2C[C@H]1O` [Indinavir, N-(2(R)-hydroxy-1 (S)-indanyl)-2(R)-phenylmethyl-4(S)-hydroxy-5-(1-(4-(3-pyridylmethyl)-2(S)-N'-(t-butylcarboxamido)-piperazinyl))-pentaneamide], for which the EC50 came to 67 nM in series [2] (setting [3]); 113 nM in series [2] (setting [4]); 153 nM in series [2] (setting [5]); 425 nM in series [2] (setting [6]); 1360 nM in series [2] (setting [7]). In series [2] (P17 virus), the “resistance (fold)” value is listed as 20 fold.
With `CC(C)(C)NC(=O)[C@@H]1C[C@@H]2CCCC[C@@H]2CN1C[C@@H](O)[C@H](Cc1ccccc1)NC(=O)[C@H](CC(N)=O)NC(=O)c1ccc2ccccc2n1` [Saquinavir, N-tert-butyl-decahydro-2-[2(R)-hydroxy-4-phenyl-3(S)-[[N-(2-quinolylcarbonyl)-L-asparaginyl]amino]butyl]-(4aS,8aS)-isoquinoline-3(S)-carboxamide], the EC50 in series [2] (setting [3]) was found to be 20 nM; in series [2] (setting [4]), 33 nM; in series [2] (setting [5]) it was 58 nM; in series [2] (setting [6]) it was 48 nM; in series [2] (setting [7]) it was 82 nM. Moreover, in series [2] (all of the passaged virus (P7, P11, P14, P17)), the “fold change in EC50” value is not above 4 fold.
